Measured values from patent publication US11541050B2, “Pyrimidine derivatives for the treatment of viral infections” (JANSSEN SCIENCES IRELAND UC, priority 2011, dated 2023).

What was measured:
[1] = tested on: human TLR8 mutant sequence comprising a deletion in the second leucine-rich repeat; test: TLR8 cellular NFκB-luc reporter assay, mutant TLR8 with deletion in the second leucine-rich repeat; assay type: cell-based; design: unit not given here; details: lowest effective concentration, TLR8 mutant with deletion in second leucine-rich repeat
Summary of the method: (§1)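 HEK293 cells transiently co-transfected with CMV-driven mutant TLR7 or TLR8 plasmid plus NFκB-luc reporter, cultured 48 h at 37 °C, then exposed to compound for 6 h at 37 °C, 5% CO2. Luciferase luminescence measured; dose-response curves from quadruplicates.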

[2] = tested on: HCV replicon in Huh-7 luc/neo cells; test: Suppression of HCV replicon replication by conditioned media from compound-treated PBMC; assay type: cell-based, HCV type 1 b; details: Hepatitis C virus, Huh-7; read-out: PBMC-HUH7_EC50
Summary of the method: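 Human PBMC (≥2 donors, RPMI + 10% human AB serum, 2×10^5 cells/well) incubated overnight with compounds; supernatant transferred onto Huh-7 luc/neo HCV 1b replicon cells. After 24 h, replication read as luciferase activity. Recombinant interferon α-2a served as standard.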

[3] = tested on: human TLR7 mutant sequence comprising a deletion in the second leucine-rich repeat; test: TLR7 cellular NFκB-luc reporter assay, mutant TLR7 with deletion in the second leucine-rich repeat; assay type: cell-based; design: unit not given here; details: lowest effective concentration, TLR7 mutant with deletion in second leucine-rich repeat
Summary of the method: as §1

[4] = target: T1, human TLR8 (wild type sequence) (Homo sapiens, UniProt Q9NR97); test: TLR8 cellular NFκB-luc reporter assay, wild type TLR8; assay type: cell-based; design: unit not given here; details: lowest effective concentration, wild type TLR8 (compounds 1-73)
T1 construct: expressed in transfected cells; host or cells: HEK293
T1 sequence (Q9NR97 27-1041): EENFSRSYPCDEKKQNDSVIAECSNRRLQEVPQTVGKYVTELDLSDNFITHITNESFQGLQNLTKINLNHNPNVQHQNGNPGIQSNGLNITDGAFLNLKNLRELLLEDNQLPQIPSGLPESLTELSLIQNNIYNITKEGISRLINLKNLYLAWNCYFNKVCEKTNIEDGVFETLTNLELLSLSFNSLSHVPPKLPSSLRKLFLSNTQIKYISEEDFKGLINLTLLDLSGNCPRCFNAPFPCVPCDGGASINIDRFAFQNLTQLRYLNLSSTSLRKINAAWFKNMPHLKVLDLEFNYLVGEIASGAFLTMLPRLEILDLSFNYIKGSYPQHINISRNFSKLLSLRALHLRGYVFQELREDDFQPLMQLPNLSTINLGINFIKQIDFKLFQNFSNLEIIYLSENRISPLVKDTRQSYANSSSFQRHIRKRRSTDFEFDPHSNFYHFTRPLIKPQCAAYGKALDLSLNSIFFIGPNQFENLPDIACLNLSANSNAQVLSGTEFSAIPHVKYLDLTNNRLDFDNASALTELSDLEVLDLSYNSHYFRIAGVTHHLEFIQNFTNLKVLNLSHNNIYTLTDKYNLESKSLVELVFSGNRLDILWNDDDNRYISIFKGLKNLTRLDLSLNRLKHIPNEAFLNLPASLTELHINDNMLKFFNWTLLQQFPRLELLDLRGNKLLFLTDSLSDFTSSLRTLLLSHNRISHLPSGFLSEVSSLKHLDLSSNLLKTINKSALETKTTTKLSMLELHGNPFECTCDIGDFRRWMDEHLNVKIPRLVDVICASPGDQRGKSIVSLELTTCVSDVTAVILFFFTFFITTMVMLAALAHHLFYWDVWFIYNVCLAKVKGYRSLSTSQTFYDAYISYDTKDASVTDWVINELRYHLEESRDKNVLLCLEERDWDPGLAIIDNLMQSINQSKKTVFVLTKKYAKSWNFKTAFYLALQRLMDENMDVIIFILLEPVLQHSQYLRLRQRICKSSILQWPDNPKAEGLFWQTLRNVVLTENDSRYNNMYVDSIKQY
Summary of the method: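 HEK293 cells were transiently transfected for 48 h with a CMV-driven wild-type or LRR2-deletion TLR7 or TLR8 plasmid plus an NFκB-luc reporter. They were then exposed to compound for 6 h at 37 °C and luciferase was read. LEC is the concentration giving an effect at least twofold above the assay SD, from quadruplicate dose-response curves.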

CCCCNc1nc(N)ncc1OCc1ccccc1Cl [Compound 15]
TLR8-dIRR2_LEC [1]: 1.06
EC50 [2]: 170 nM
TLR7-dIRR2_LEC [3]: 0.17
TLR8-wt_LEC [4]: 2.31

CCCCNc1nc(N)ncc1OCCCO [Compound 24]
TLR8-dIRR2_LEC [1]: 1.50
EC50 [2]: 2750 nM
TLR7-dIRR2_LEC [3]: 1.99
TLR8-wt_LEC [4]: 2.42

CCCCNc1nc(N)ncc1OCCCC [Compound 10]
TLR8-dIRR2_LEC [1]: 2.82
EC50 [2]: 1580 nM
TLR7-dIRR2_LEC [3]: 1.28
TLR8-wt_LEC [4]: 8.14

CCCCNc1nc(N)ncc1OCCCC(N)=O [Compound 28]
TLR8-dIRR2_LEC [1]: 6.99
EC50 [2]: 1750 nM
TLR7-dIRR2_LEC [3]: 2.47
TLR8-wt_LEC [4]: 9.18

CCCCNc1nc(N)ncc1OC(C)c1ccccc1 (stereo not drawn) [Compound 69]
TLR8-dIRR2_LEC [1]: 2.22
EC50 [2]: 6160 nM
TLR7-dIRR2_LEC [3]: 3.75
TLR8-wt_LEC [4]: 6.43

CCCCNc1nc(N)ncc1OCc1ccc(C(=O)OC)cc1OC [Compound 44]
TLR8-dIRR2_LEC [1]: 1.96
EC50 [2]: 590 nM
TLR7-dIRR2_LEC [3]: 0.16
TLR8-wt_LEC [4]: 3.11

CCCCNc1nc(N)ncc1OCc1ccc(C(=O)O)cc1OC [Compound 67]
TLR8-dIRR2_LEC [1]: >24.59
EC50 [2]: 2430 nM
TLR7-dIRR2_LEC [3]: 2.31
TLR8-wt_LEC [4]: >24.59

CCCCNc1nc(N)ncc1Oc1ccccc1 [Compound 71]
TLR8-dIRR2_LEC [1]: >24.59
EC50 [2]: 4960 nM
TLR7-dIRR2_LEC [3]: >24.59
TLR8-wt_LEC [4]: >24.59

CCCCNc1nc(N)ncc1OCc1ccc(Cl)c(Cl)c1 [Compound 11]
TLR8-dIRR2_LEC [1]: 3.50
EC50 [2]: 780 nM
TLR7-dIRR2_LEC [3]: 0.60
TLR8-wt_LEC [4]: 4.52

CCCCNc1nc(N)ncc1OCc1cncn1-c1ccccc1C [Compound 50]
TLR8-dIRR2_LEC [1]: >25
EC50 [2]: 780 nM
TLR7-dIRR2_LEC [3]: 0.51
TLR8-wt_LEC [4]: >25

CCCCNc1nc(N)ncc1OCCN [Compound 30]
TLR8-dIRR2_LEC [1]: 1.16
EC50 [2]: 9070 nM
TLR7-dIRR2_LEC [3]: >25
TLR8-wt_LEC [4]: 6.44

C=CCCCCOc1cnc(N)nc1NCCCC [Compound 20]
TLR8-dIRR2_LEC [1]: 2.87
EC50 [2]: 1330 nM
TLR7-dIRR2_LEC [3]: 0.79
TLR8-wt_LEC [4]: 10.21

CCCCNc1nc(N)ncc1OCc1cc(C)on1 [Compound 52]
TLR8-dIRR2_LEC [1]: 1.65
EC50 [2]: 260 nM
TLR7-dIRR2_LEC [3]: 0.63
TLR8-wt_LEC [4]: 3.61

CCCCNc1nc(N)ncc1OCc1occc1C(=O)OCC [Compound 47]
TLR8-dIRR2_LEC [1]: 0.66
EC50 [2]: 330 nM
TLR7-dIRR2_LEC [3]: 0.20
TLR8-wt_LEC [4]: 1.87

CCCCNc1nc(N)nc(C)c1Oc1ccccc1 [Compound 3]
TLR8-dIRR2_LEC [1]: 1.66
EC50 [2]: 10800 nM
TLR7-dIRR2_LEC [3]: 21.69
TLR8-wt_LEC [4]: 4.91

CCCCNc1nc(N)ncc1OCCC(C)C [Compound 9]
TLR8-dIRR2_LEC [1]: 9.70
EC50 [2]: 9720 nM
TLR7-dIRR2_LEC [3]: 1.55
TLR8-wt_LEC [4]: 19.00

CCCCNc1nc(N)ncc1OCc1cccc(C(F)(F)F)c1 [Compound 51]
TLR8-dIRR2_LEC [1]: 2.09
EC50 [2]: 500 nM
TLR7-dIRR2_LEC [3]: 0.58
TLR8-wt_LEC [4]: 3.92

CCCCNc1nc(N)ncc1OCc1ccccc1C [Compound 14]
TLR8-dIRR2_LEC [1]: 0.91
EC50 [2]: 1810 nM
TLR7-dIRR2_LEC [3]: 0.91
TLR8-wt_LEC [4]: 4.92

CCCCNc1nc(N)ncc1OCCN1CCOCC1 [Compound 27]
TLR8-dIRR2_LEC [1]: 0.64
EC50 [2]: 1030 nM
TLR7-dIRR2_LEC [3]: 0.78
TLR8-wt_LEC [4]: 5.36

CCCCNc1nc(N)ncc1OCc1cc(F)c(F)cc1OC [Compound 53]
TLR8-dIRR2_LEC [1]: 2.15
EC50 [2]: 600 nM
TLR7-dIRR2_LEC [3]: 0.64
TLR8-wt_LEC [4]: 3.06

CCCCNc1nc(N)ncc1OCCCC#N [Compound 29]
TLR8-dIRR2_LEC [1]: 1.19
EC50 [2]: 2970 nM
TLR7-dIRR2_LEC [3]: 1.32
TLR8-wt_LEC [4]: 2.86

CCCCNc1nc(N)ncc1OCc1cc(-c2ccc(OC)cc2)no1 [Compound 35]
TLR8-dIRR2_LEC [1]: 1.66
EC50 [2]: 1500 nM
TLR7-dIRR2_LEC [3]: 0.39
TLR8-wt_LEC [4]: 1.67

CCCCNc1nc(N)ncc1OCCO [Compound 21]
TLR8-dIRR2_LEC [1]: 0.64
EC50 [2]: 3080 nM
TLR7-dIRR2_LEC [3]: 1.61
TLR8-wt_LEC [4]: 2.69

C=CCCOc1cnc(N)nc1NCCCC [Compound 16]
TLR8-dIRR2_LEC [1]: 0.59
EC50 [2]: 790 nM
TLR7-dIRR2_LEC [3]: 0.49
TLR8-wt_LEC [4]: 2.68

CCCCNc1nc(N)nc(C)c1Oc1ccccc1OC [Compound 7]
TLR8-dIRR2_LEC [1]: 3.03
EC50 [2]: 3110 nM
TLR7-dIRR2_LEC [3]: 1.11
TLR8-wt_LEC [4]: 5.84

CCCCNc1nc(N)ncc1OCCOCCOC [Compound 61]
TLR8-dIRR2_LEC [1]: 1.56
EC50 [2]: 1910 nM
TLR7-dIRR2_LEC [3]: 1.38
TLR8-wt_LEC [4]: 3.59

CCCCNc1nc(N)ncc1OCC1CC1 [Compound 39]
TLR8-dIRR2_LEC [1]: 7.10
TLR7-dIRR2_LEC [3]: 3.01
TLR8-wt_LEC [4]: 14.41

CCCCNc1nc(N)ncc1OCc1cc(C)no1 [Compound 26]
TLR8-dIRR2_LEC [1]: 1.52
EC50 [2]: 580 nM
TLR7-dIRR2_LEC [3]: 0.49
TLR8-wt_LEC [4]: 3.90

CCCCNc1nc(N)ncc1OCc1cccc(C(=O)OC)c1 [Compound 23]
TLR8-dIRR2_LEC [1]: 1.45
EC50 [2]: 10800 nM
TLR7-dIRR2_LEC [3]: 0.26
TLR8-wt_LEC [4]: 2.55

CCCCNc1nc(N)ncc1OCCOC [Compound 17]
TLR8-dIRR2_LEC [1]: 0.67
EC50 [2]: 710 nM
TLR7-dIRR2_LEC [3]: 0.34
TLR8-wt_LEC [4]: 2.03

CCCCNc1nc(N)ncc1OCc1ccc(C(=O)OC)cc1 [Compound 12]
TLR8-dIRR2_LEC [1]: 1.12
EC50 [2]: 2760 nM
TLR7-dIRR2_LEC [3]: 0.26
TLR8-wt_LEC [4]: 1.49

CCCCNc1nc(N)ncc1OCc1ccccc1F [Compound 8]
TLR8-dIRR2_LEC [1]: 0.81
EC50 [2]: 370 nM
TLR7-dIRR2_LEC [3]: 0.38
TLR8-wt_LEC [4]: 1.88

CCCCCCCCOc1cnc(N)nc1NCCCC [Compound 40]
TLR8-dIRR2_LEC [1]: >25
TLR7-dIRR2_LEC [3]: 2.69
TLR8-wt_LEC [4]: >25

CCCCNc1nc(N)ncc1OCc1ccccc1-c1ccccc1 [Compound 25]
TLR8-dIRR2_LEC [1]: >25
EC50 [2]: 1550 nM
TLR7-dIRR2_LEC [3]: 0.64
TLR8-wt_LEC [4]: >25

CCCCNc1nc(N)ncc1OCCc1ccccc1 [Compound 13]
TLR8-dIRR2_LEC [1]: 5.23
EC50 [2]: 2530 nM
TLR7-dIRR2_LEC [3]: 2.26
TLR8-wt_LEC [4]: 13.18

CCCCNc1nc(N)ncc1OCc1ccncc1 [Compound 18]
TLR8-dIRR2_LEC [1]: 0.85
EC50 [2]: 630 nM
TLR7-dIRR2_LEC [3]: 0.83
TLR8-wt_LEC [4]: 1.87

CCCCNc1nc(N)ncc1OCc1cccnc1 [Compound 22]
TLR8-dIRR2_LEC [1]: 0.94
EC50 [2]: 250 nM
TLR7-dIRR2_LEC [3]: 0.31
TLR8-wt_LEC [4]: 2.35

CCCCNc1nc(N)ncc1OCc1ncc(C)c(OC)c1C [Compound 6]
TLR8-dIRR2_LEC [1]: 0.10
EC50 [2]: 20 nM
TLR7-dIRR2_LEC [3]: 0.01
TLR8-wt_LEC [4]: 0.16

CCCCNc1nc(N)ncc1OCc1ccccc1OC(F)(F)F [Compound 43]
TLR8-dIRR2_LEC [1]: 1.66
EC50 [2]: 790 nM
TLR7-dIRR2_LEC [3]: 0.08
TLR8-wt_LEC [4]: 8.22

CCCCNc1nc(N)ncc1OCc1cc(-c2ccc(F)cc2)on1 [Compound 33]
TLR8-dIRR2_LEC [1]: 1.17
EC50 [2]: 1480 nM
TLR7-dIRR2_LEC [3]: 0.36
TLR8-wt_LEC [4]: 1.78

CCCCNc1nc(N)ncc1OCc1occc1C(=O)OC [Compound 45]
TLR8-dIRR2_LEC [1]: 0.40
EC50 [2]: 170 nM
TLR7-dIRR2_LEC [3]: 0.17
TLR8-wt_LEC [4]: 0.58
